Entries after “also recorded” stand apart in the source; their conditions may differ.
Columns and labels:
HIV-1 Rev protein = experiment: Nuclear export of HIV-1 Rev-GFP in actinomycin D treated HeLa cells; assay type: cell-based; conditions: 25µM
Source text: The HIV-1 Rev protein transports unspliced and incompletely spliced viral RNAs from the nucleus into the cytoplasm (Stauber et al., 1995). As such, Rev's export function is crucial for viral replication and AIDS development (Pavlakis and Stauber, 1998; Stauber et al., 1995).

A431 = experiment: Cell viability (CellTiter-Glo) and cell death, A431; assay type: cell-based; conditions: for cell death induced by treatment: A431 (epidermoid carcinoma), 25µM; for viability compared to the control: A431, 100µM, 72h, CellTiter-Glo
Procedure: To test the anti-cancer activity of the compounds, several cancer cell lines, currently used as models for different epithelial cancers and leukemias, were treated with the indicated inhibitors. […] Every 24h, the cell culture medium was replaced by fresh compound-containing medium. 72h post treatment, cell were analyzed by adding 100µl CellTiter-Glo® assay reagent (Promega). Luminescence was measured with a LuminoskanAscent device (ThermoScientific). Cells treated with a corresponding amount of DMSO only were use as a control. The luminescence (equals cell viability) of said control was set to 100%.

KASUMI-1 = experiment: Cell death, KASUMI-1; assay type: cell-based; conditions: KASUMI-1 (acute myeloid leukemia, AML), 25µM
K562 = experiment: AlamarBlue viability assay, K562, alone and combined with imatinib; assay type: cell-based, human; conditions: K562, 25µM, 72h, single agent
Procedure: The BCR-ABL^+ human chronic myeloid leukemia (CML) cell line K562 was used to investigate whether combining export inhibitors with chemotherapeutic drugs currently used in the clinics enhances drug-induced cancer cell death.
72h post treatment, cells were analyzed by adding 10µl of AlamarBlue® (Invitrogen). Fluorescence (538/600nm) was measured with a LuminoskanAscent (ThermoScientific). Cells treated with DMSO only were used as a control. The fluorescence measured (equals cell viability) with said control was set to 100%.

human CRM1 (Crm1-HA) = human CRM1 (Crm1-HA) (Homo sapiens, UniProt O14980); experiment: In vitro pull-down of Crm1-HA with GST-SurvivinNES-GFP beads; assay type: binding; conditions: preincubation 1mM, 30min at 4°C
human CRM1 (Crm1-HA), sequence (O14980 whole entry): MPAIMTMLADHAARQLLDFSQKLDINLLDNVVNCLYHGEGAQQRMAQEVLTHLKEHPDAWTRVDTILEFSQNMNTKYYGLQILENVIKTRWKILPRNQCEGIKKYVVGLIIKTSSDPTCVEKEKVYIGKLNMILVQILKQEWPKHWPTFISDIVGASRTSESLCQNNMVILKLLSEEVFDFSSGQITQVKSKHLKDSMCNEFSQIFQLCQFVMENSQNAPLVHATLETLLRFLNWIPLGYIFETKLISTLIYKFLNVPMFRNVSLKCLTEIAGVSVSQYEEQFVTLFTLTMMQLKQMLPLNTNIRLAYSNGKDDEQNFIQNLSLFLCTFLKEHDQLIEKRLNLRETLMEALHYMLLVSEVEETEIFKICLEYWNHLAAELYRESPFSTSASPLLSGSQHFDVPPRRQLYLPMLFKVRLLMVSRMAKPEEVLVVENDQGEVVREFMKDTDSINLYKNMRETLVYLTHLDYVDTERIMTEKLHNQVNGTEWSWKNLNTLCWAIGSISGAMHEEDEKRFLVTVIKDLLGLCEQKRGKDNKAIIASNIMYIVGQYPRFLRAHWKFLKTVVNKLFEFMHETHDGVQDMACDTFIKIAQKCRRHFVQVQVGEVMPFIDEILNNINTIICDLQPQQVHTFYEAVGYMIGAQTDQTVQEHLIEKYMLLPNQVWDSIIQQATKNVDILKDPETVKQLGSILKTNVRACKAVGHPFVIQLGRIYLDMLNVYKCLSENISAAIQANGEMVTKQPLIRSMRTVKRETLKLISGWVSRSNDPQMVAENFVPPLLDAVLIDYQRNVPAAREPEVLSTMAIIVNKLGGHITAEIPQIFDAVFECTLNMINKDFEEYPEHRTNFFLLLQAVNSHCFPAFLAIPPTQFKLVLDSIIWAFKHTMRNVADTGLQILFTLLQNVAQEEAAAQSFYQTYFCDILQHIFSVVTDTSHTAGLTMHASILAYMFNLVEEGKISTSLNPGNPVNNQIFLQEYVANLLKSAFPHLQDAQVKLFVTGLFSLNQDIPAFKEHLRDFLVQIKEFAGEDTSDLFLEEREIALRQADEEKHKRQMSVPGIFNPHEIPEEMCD
Procedure: The binding of LMB and of compounds C3 and C5 to CRM1 was examined by in vitro pull-down assays as described by Stauber et al., 2006. Briefly, in vitro coupled transcription/translation was performed using the TNT reticulocyte lysate system (Promega, Madison, WI, USA) supplemented with methionine (Promega, Madison, WI, USA) and plasmid pCrm1_HA (1µg), encoding a hemagglutinin epitope-tagged version of human CRM1 (Crm1-HA), as the template. Equal amounts of the Crm1-HA TNT reaction were preincubated with either DMSO (negative control; 0.1%), LMB (400nM, final concentration), C3 (1 mM; final concentration) or C5 (1mM; final concentration) in binding-buffer containing 5mM MgCl2 (AppliChem, Darmstadt, Germany), 2mM GTP (PEQLAB, Erlangen, Germany), 50mM Hepes pH 7.9 (AppliChem, Darmstadt, Germany), 200mM KCI (AppliChem, Darmstadt, Germany), 0.4% Tween 20 (AppliChem, Darmstadt, Germany), supplemented with complete protease inhibitor cocktail (Roche, Mannheim, Germany) for 30min at 4°C. Subsequently, GST-Sepharose beads loaded with 25µg recombinant GST-SurvivinNES-GFP and 5µg GST-RanQ96L were added to each drug-treated TNT reaction. Recombinant GST-SurvivinNES-GFP and GST-RanQ96L were purified from bacteria as described by Stauber et al., 2006. Pull-down was performed for 4h at 4°C in a rotating wheel. Samples were then centrifuged (3500rpm, 1min, 4°C) to recover the GST-SurvivinNES-GFP beads with bound Crm1-HA. Beads were washed three times with binding-buffer (500µl each washing step, 3500rpm, 1min, 4°C). Finally, bound proteins were eluted by adding 25µl 2xSDS-sample buffer (250mM Tris-HCl pH 6.8; 2% w/v SDS, 20% glycerol, 2% β-mercaptoethanol, 0.002% w/v bromophenol blue) and incubating at 95°C for 2min. Samples were separated by SDS-gelelectrophoresis and analyzed by immunoblot analysis as described by Stauber et al., 2006. Crm1-HA was detected with HA specific antibodies (MMS-101R, Covance, New Jersey, USA). GFP served as the loading control and was visualized with GFP specific antibodies (sc-8334, Santa Cruz Biotechnology, Heidelberg, Germany).

Survivin = experiment: Nuclear export of Survivin-GFP fusion stably expressed in A431 cells; assay type: cell-based; conditions: A431, stable expression, 25µM
Source text: Nuclear export of Survivin is crucial for its tumor promoting cytoprotective activity (Engels et al., 2007; Knauer et al., 2007a; Knauer et al., 2007b).

SMILES	Localization of HIV-1 Rev-GFP (nuclear export of HIV-1 Rev protein) (HIV-1 Rev protein)	cell death induced by treatment (A431)	viability compared to the control (A431)	cell death induced by treatment (KASUMI-1)	cancer cell death (AlamarBlue viability) (K562)	interaction of Crm1-HA with the export substrate GST-SurvivinNES-GFP (human CRM1 (Crm1-HA))	Localization of Survivin-GFP fusion (nuclear export of Survivin) (Survivin)
NC(=O)c1c(NC(NC(=O)c2ccccc2F)(C(F)(F)F)C(F)(F)F)sc2c1CCCC2 [Compound C3, 2-[[1,1,1,3,3,3-hexafluoro-2-[(2-fluorobenzoyl)amino]propan-2-yl]amino]-4,5,6,7-tetrahydro-1-benzothiophene-3-carboxamide]	inhibited; also recorded: restored the nuclear accumulation	cell death	significantly reduced viability	cell death	caused cancer cell death	did not affected the CRM1 binding	–
O=C(NC1CS(=O)(=O)CC1Cl)c1cccc(C(F)(F)F)c1 (stereo not shown) [Compound C5, N-(4-chloro-1,1-dioxothiolan-3-yl)-3-(trifluoromethyl)benzamide]	inhibited; also recorded: restored the nuclear accumulation	cell death	significantly reduced viability	cell death	caused cancer cell death	did not affected the CRM1 binding	nuclear accumulation
